Experimental data: US10800741B2 (ANCUREALL PHARMACEUTICAL (SHANGHAI) CO., LTD., priority 2017, dated 2020)
Where two headings read alike, the source gives them in different places.

How the values were obtained:
Assay in all cases: KINOMEscan in vitro binding to 468 labeled protein kinases
[1] = molecular target: T1, protein kinases (Homo sapiens, UniProt P00533, G719C); settings: EGFR(G719C)
T1 construct: purchased Discovery X company (USA), KINOMEscan screening platform
Summary of the method: (§1)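 Competition binding across 468 labelled kinases on the KINOMEscan platform, compound tested at 1000 nM, 10 nM and 1 nM, duplicate samples. Result given as percentage of DMSO solvent control; lower percentage means stronger binding.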

[2] = molecular target: T2, protein kinases (Homo sapiens, UniProt P35590); settings: TIE1, read-out: Test compound/solvent control (%)
T2 construct: purchased Discovery X company (USA), KINOMEscan screening platform
Summary of the method: as §1

[3] = molecular target: T3, protein kinases (Homo sapiens, UniProt P00519, T315I); settings: read-out: Test compound/solvent control (%); for remaining binding at 0.001 µM: 1 nM; for remaining binding at 0.01 µM: 10 nM; for remaining binding at 1 µM: 1000 nM
T3 construct: purchased Discovery X company (USA), KINOMEscan screening platform
Summary of the method: as §1

[4] = molecular target: T4, protein kinases (Homo sapiens, UniProt P08922); settings: ROS1, read-out: Test compound/solvent control (%)
T4 construct: purchased Discovery X company (USA), KINOMEscan screening platform
Summary of the method: as §1

[5] = molecular target: T5, protein kinases (Homo sapiens, UniProt P00519, H396P); settings: read-out: Test compound/solvent control (%); for remaining binding at 0.001 µM: 1 nM; for remaining binding at 0.01 µM: 10 nM; for remaining binding at 1 µM: 1000 nM
T5 construct: purchased Discovery X company (USA), KINOMEscan screening platform
Summary of the method: as §1

[6] = molecular target: T6, protein kinases (Homo sapiens, UniProt P04629); settings: TRKA (NTRK1), read-out: Test compound/solvent control (%)
T6 construct: purchased Discovery X company (USA), KINOMEscan screening platform
Summary of the method: as §1

[7] = molecular target: T7, protein kinases (Homo sapiens, UniProt P00533, G719S); settings: EGFR(G719S)
T7 construct: purchased Discovery X company (USA), KINOMEscan screening platform
Summary of the method: as §1

[8] = molecular target: T8, protein kinases (Homo sapiens, UniProt P07949); settings: RET, read-out: Test compound/solvent control (%)
T8 construct: purchased Discovery X company (USA), KINOMEscan screening platform
Summary of the method: as §1

[9] = molecular target: T9, protein kinases (Homo sapiens, UniProt P07949, V804M); settings: RET(V804M), read-out: Test compound/solvent control (%)
T9 construct: purchased Discovery X company (USA), KINOMEscan screening platform
Summary of the method: as §1

[10] = molecular target: T10, protein kinases (Homo sapiens, UniProt P00533, L861Q); settings: EGFR(L861Q)
T10 construct: purchased Discovery X company (USA), KINOMEscan screening platform
Summary of the method: as §1

[11] = molecular target: T11, protein kinases (Homo sapiens, UniProt O94804); settings: LOK
T11 construct: purchased Discovery X company (USA), KINOMEscan screening platform
Summary of the method: as §1

[12] = molecular target: T12, protein kinases (Homo sapiens, UniProt P06239); settings: LCK, read-out: Test compound/solvent control (%)
T12 construct: purchased Discovery X company (USA), KINOMEscan screening platform
Summary of the method: as §1

[13] = molecular target: T13, protein kinases (Homo sapiens, UniProt P21802); settings: FGFR2, read-out: Test compound/solvent control (%)
T13 construct: purchased Discovery X company (USA), KINOMEscan screening platform
Summary of the method: as §1

T10 sequence (P00533 25-1210 L861Q): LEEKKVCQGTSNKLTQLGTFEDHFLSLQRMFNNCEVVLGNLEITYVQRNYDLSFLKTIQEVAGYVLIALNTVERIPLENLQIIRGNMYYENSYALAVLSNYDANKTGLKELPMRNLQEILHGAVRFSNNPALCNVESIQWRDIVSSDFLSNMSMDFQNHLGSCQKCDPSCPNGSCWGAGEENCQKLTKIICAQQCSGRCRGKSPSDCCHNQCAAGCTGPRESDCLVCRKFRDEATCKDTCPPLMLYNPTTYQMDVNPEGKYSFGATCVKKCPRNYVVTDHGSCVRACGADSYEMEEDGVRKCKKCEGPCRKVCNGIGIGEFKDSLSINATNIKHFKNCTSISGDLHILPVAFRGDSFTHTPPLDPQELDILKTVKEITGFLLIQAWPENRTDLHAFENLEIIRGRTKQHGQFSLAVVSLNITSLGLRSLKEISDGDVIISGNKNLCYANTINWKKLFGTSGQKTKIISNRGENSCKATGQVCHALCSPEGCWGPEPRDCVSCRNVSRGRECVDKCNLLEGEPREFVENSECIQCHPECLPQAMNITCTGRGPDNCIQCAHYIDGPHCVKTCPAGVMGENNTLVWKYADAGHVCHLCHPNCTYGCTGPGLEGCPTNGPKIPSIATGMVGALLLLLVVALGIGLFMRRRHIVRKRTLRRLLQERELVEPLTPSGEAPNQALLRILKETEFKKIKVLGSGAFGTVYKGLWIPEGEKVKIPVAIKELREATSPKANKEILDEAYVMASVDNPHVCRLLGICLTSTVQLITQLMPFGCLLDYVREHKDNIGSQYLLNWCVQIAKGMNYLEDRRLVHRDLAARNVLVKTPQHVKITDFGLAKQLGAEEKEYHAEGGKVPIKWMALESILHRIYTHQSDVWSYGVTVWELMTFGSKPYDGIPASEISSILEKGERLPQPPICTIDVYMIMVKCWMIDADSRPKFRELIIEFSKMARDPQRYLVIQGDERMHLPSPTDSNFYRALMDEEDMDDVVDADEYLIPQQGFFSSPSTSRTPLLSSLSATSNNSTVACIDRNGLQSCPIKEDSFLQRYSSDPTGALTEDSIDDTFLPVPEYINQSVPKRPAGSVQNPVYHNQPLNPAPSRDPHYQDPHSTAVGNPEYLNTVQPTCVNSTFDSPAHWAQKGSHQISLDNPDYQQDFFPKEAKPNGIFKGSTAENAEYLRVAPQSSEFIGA
T9 sequence (P07949 29-1114 V804M): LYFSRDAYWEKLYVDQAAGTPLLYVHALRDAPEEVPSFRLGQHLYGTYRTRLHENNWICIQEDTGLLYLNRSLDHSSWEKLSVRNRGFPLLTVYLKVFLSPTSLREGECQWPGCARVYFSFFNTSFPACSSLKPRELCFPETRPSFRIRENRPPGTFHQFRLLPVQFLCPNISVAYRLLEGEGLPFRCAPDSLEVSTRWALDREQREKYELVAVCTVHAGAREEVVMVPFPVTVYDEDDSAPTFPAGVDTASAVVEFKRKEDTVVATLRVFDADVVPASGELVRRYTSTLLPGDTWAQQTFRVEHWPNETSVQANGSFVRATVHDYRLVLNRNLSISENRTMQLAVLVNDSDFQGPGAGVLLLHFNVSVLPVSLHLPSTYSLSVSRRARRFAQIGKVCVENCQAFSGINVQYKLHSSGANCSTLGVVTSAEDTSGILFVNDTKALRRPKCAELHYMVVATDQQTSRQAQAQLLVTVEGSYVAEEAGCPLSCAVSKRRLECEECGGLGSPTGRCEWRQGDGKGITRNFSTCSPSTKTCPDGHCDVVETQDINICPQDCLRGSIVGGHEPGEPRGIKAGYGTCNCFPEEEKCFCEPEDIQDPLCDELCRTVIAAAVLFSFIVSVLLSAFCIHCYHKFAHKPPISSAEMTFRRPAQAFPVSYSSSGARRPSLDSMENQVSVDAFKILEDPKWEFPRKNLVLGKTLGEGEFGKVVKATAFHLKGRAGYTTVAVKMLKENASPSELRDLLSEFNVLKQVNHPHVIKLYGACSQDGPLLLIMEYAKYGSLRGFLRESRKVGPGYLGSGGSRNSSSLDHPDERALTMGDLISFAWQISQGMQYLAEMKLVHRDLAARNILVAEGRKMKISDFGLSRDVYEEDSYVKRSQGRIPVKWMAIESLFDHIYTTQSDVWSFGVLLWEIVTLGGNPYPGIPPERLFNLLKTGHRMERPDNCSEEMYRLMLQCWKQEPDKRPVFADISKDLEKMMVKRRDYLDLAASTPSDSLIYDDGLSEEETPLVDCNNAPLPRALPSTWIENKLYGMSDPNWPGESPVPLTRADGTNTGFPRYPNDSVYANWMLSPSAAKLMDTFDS
T8 sequence (P07949 29-1114): as the sequence (P07949 29-1114 V804M) above, with M776V counted along it
T1 sequence (P00533 25-1210 G719C): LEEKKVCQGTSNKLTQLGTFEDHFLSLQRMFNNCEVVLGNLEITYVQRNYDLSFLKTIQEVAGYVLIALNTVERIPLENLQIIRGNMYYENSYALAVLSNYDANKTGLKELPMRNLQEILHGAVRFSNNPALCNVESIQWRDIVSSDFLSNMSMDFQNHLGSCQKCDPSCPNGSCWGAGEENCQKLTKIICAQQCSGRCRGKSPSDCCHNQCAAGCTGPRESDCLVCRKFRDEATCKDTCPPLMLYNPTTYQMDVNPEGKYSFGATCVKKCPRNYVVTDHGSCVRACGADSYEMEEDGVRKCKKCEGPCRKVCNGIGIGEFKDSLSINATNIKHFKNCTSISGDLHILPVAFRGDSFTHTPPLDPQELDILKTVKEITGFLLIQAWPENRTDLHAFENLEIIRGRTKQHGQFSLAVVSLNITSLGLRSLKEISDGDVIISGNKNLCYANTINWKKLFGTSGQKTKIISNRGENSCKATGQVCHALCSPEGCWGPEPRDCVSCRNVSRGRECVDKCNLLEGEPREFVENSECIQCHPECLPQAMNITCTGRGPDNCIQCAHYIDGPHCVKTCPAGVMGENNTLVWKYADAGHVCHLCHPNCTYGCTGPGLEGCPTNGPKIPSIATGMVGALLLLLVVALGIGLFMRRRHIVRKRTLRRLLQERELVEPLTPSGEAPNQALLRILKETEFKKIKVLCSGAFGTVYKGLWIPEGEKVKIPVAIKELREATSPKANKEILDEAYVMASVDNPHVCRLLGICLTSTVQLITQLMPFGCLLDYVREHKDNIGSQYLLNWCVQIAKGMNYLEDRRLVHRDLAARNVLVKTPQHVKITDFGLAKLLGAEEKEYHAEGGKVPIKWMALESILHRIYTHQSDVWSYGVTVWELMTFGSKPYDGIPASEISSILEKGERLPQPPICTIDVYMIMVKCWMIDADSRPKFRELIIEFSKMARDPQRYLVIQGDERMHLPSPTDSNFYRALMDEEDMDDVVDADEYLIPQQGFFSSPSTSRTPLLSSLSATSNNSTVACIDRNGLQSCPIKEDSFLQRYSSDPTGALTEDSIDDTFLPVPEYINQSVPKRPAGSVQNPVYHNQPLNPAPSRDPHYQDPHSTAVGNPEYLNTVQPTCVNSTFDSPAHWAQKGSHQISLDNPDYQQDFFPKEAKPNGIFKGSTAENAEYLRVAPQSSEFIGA
T12 sequence (P06239 whole entry): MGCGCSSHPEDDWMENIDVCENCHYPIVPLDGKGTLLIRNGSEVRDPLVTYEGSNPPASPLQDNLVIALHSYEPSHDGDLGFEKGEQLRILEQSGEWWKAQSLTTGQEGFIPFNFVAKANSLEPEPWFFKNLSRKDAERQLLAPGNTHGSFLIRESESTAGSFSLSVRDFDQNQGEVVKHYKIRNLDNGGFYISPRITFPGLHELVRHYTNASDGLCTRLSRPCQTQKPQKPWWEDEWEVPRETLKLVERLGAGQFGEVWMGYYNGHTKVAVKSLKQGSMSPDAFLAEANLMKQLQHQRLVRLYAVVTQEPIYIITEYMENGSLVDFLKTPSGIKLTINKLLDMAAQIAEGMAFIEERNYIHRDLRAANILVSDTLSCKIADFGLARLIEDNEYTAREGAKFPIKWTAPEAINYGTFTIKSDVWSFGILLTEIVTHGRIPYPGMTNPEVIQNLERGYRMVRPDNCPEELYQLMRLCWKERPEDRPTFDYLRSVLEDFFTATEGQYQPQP
T6 sequence (P04629 33-796): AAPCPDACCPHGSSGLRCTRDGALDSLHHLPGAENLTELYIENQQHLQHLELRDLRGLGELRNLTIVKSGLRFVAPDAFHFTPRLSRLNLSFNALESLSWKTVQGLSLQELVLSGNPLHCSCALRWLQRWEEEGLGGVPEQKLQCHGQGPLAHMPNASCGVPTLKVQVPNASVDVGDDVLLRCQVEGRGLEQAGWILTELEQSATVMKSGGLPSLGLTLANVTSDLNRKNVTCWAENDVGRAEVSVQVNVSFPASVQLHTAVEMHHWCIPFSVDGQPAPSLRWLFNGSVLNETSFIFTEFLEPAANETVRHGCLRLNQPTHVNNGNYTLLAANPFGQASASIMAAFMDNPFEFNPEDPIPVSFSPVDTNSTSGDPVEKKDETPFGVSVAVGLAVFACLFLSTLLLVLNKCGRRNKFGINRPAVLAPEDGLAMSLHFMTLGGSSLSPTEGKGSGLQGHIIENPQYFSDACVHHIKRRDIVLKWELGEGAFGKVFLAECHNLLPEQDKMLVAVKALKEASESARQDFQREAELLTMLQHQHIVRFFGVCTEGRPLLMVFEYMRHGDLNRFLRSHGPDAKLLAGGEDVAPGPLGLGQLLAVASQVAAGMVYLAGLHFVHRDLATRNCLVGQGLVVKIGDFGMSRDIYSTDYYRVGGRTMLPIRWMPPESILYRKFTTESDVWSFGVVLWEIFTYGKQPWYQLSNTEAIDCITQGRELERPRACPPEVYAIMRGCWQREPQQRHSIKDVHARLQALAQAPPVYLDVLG

In the case of COCCOc1cc2nccc(Oc3ccc(NC(=O)Nc4cc(C(C)(C)C)n[nH]4)c(Cl)c3)c2cc1NC(C)=O [Compound 66, N-[4-{4-[3-(5-tert-butyl-2H-pyrazol-3-yl)-ureido]-3-chloro-phenoxy}-7-(2-methoxy-ethoxy)-quinolin-6-yl]-acetamide], the “Test compound/solvent control (%)” value ([1]; 1 nM) is reported as 83%, the “Test compound/solvent control (%)” value ([1]; 10 nM) is reported as 30% and the “Test compound/solvent control (%)” value ([1]; 1000 nM) is reported as 0.2%. For the same compound, the remaining binding at 0.001 µM ([2]; 1 nM) was 41%, the remaining binding at 0.01 µM ([2]; 10 nM) was 21% and the remaining binding at 1 µM ([2]; 1000 nM) was 2%. For the same compound, the remaining binding at 0.001 µM ([3]; ABL1(T315I)-phosphorylated) was 100%, the remaining binding at 0.01 µM ([3]; ABL1(T315I)-phosphorylated) was 34% and the remaining binding at 1 µM ([3]; ABL1(T315I)-phosphorylated) was 0.45%. The remaining binding at 0.001 µM ([3]; ABL1(T315I)-unphosphorylated) was 96%, the remaining binding at 0.01 µM ([3]; ABL1(T315I)-unphosphorylated) was 32% and the remaining binding at 1 µM ([3]; ABL1(T315I)-unphosphorylated) was 0.15%. It also gave a remaining binding at 0.001 µM ([4]; 1 nM) of 85%, a remaining binding at 0.01 µM ([4]; 10 nM) of 17% and a remaining binding at 1 µM ([4]; 1000 nM) of 4.6%. The remaining binding at 0.001 µM ([5]; ABL1(H396P)-phosphorylated) was 55%, the remaining binding at 0.01 µM ([5]; ABL1(H396P)-phosphorylated) was 9.7% and the remaining binding at 1 µM ([5]; ABL1(H396P)-phosphorylated) was 0%. For the same compound, the remaining binding at 0.001 µM ([5]; ABL1(H396P)-unphosphorylated) was 27%, the remaining binding at 0.01 µM ([5]; ABL1(H396P)-unphosphorylated) was 1.8% and the remaining binding at 1 µM ([5]; ABL1(H396P)-unphosphorylated) was 0.05%. For the same compound, the remaining binding at 0.001 µM ([6]; 1 nM) was 48%, the remaining binding at 0.01 µM ([6]; 10 nM) was 5.5% and the remaining binding at 1 µM ([6]; 1000 nM) was 0.2%. The “Test compound/solvent control (%)” value ([7]; 1 nM) was 77%, the “Test compound/solvent control (%)” value ([7]; 10 nM) was 18% and the “Test compound/solvent control (%)” value ([7]; 1000 nM) was 0%. The remaining binding at 0.001 µM ([8]; 1 nM) was 85%, the remaining binding at 0.01 µM ([8]; 10 nM) was 17% and the remaining binding at 1 µM ([8]; 1000 nM) was 0%. The remaining binding at 0.001 µM ([9]; 1 nM) was 100%, the remaining binding at 0.01 µM ([9]; 10 nM) was 34% and the remaining binding at 1 µM ([9]; 1000 nM) was 0%. The “Test compound/solvent control (%)” value ([10]; 1 nM) was 73%, the “Test compound/solvent control (%)” value ([10]; 10 nM) was 9.5% and the “Test compound/solvent control (%)” value ([10]; 1000 nM) was 0%. For the same compound, the “Test compound/solvent control (%)” value ([11]; 1 nM) was 57%, the “Test compound/solvent control (%)” value ([11]; 10 nM) was 1.3% and the “Test compound/solvent control (%)” value ([11]; 1000 nM) was 0%. It also gave a remaining binding at 0.001 µM ([12]; 1 nM) of 33%, a remaining binding at 0.01 µM ([12]; 10 nM) of 0.65% and a remaining binding at 1 µM ([12]; 1000 nM) of 0.2%. It also gave a remaining binding at 0.001 µM ([13]; 1 nM) of 93%, a remaining binding at 0.01 µM ([13]; 10 nM) of 71% and a remaining binding at 1 µM ([13]; 1000 nM) of 0.25%.
